Experimental findings from the NIST ThermoML archive (doi:10.1016/j.jct.2016.09.038) are described below.

For data set [1] the following is noted: Crystal; DTA.
Data set [2] is described as follows: Molar enthalpy of transition or fusion. The following applies: Crystal; DSC.

Molecules are shown by their SMILES. ± gives the expanded uncertainty stated by the source.

For `CC(C)(C)[C@H](O)[C@H](Cc1ccc(Cl)cc1)n1cncn1` [2S,3S-Paclobutrazol], the Normal melting temperature in data set [1] was determined as 160.66 ± 1.1 °C. Also, the “Molar enthalpy of transition or fusion” value in data set [2] worked out at 9.05 ± 0.263 kcal/mol.
